Legend:
Homo sapiens [1] = species on record: Homo sapiens; assay: Selectivity ratio of IC50 for human DAT to IC50 for human NET
[2] = target: Sodium-dependent serotonin transporter (Homo sapiens, UniProt P31645); assay: Inhibition of human SERT expressed in CHO cells assessed as [3H]-5-hydroxytryptamine reuptake incubated for 20 mins measured after 30 mins by topcount method; format: cell-based
[3] = target: Sodium-dependent noradrenaline transporter (Homo sapiens, UniProt P23975); assay: Inhibition of human NET expressed in CHO cells assessed as [3H]-Norepinephrine reuptake incubated for 45 mins measured after 30 mins by topcount method; format: cell-based
Sequence of Sodium-dependent noradrenaline transporter (P23975 whole entry): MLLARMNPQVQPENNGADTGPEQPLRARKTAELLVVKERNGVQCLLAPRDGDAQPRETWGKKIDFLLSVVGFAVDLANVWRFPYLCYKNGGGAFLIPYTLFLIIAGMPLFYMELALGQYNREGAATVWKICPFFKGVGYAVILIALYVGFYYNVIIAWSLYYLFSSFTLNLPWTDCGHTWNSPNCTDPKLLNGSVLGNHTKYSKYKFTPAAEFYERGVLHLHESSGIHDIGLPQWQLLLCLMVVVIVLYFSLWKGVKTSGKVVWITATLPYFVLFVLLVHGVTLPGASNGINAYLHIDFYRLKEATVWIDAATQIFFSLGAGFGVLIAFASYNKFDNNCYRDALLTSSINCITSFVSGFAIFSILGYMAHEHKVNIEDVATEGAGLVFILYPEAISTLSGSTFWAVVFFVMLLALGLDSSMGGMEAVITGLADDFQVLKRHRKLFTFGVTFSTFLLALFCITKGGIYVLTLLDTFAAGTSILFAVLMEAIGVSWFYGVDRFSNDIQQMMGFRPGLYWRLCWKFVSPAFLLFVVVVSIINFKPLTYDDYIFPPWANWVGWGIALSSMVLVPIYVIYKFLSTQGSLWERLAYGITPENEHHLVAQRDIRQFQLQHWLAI

[4] = target: Sodium-dependent dopamine transporter (Homo sapiens, UniProt Q01959); assay: Inhibition of human DAT expressed in CHO cells assessed as [3H]-dopamine reuptake incubated for 60 mins measured after 30 mins by topcount method; format: cell-based
Sequence of Sodium-dependent dopamine transporter (Q01959 whole entry): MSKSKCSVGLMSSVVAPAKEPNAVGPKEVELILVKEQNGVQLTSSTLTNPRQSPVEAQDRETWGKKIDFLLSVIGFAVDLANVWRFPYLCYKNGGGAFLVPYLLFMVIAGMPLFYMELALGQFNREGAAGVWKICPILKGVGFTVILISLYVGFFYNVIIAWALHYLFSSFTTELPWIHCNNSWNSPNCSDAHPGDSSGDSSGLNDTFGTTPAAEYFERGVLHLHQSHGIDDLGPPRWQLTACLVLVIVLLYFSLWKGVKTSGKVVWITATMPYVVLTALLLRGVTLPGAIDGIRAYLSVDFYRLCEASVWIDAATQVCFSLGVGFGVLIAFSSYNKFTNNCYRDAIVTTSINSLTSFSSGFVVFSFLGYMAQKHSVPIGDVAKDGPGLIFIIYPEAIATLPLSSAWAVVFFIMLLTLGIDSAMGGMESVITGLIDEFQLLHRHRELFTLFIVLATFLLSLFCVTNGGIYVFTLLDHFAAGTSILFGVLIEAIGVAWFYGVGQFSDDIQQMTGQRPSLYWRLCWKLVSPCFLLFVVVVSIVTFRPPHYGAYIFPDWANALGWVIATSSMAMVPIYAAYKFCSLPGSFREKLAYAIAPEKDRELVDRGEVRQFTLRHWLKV

Homo sapiens [5] = species on record: Homo sapiens; assay: Selectivity ratio of IC50 for human SERT to IC50 for human NET
[6] = Dissociation constant, pKa of the compound; format: physicochemical
MDR1 = assay: Efflux ratio of apparent permeability from basolateral to apical side over apical to basolateral side in pig LLC-PK1 cells expressing human MDR1 at 10 umol/l after 2 hrs by LC/MS/MS analysis; format: ADME, cell-based, Sus scrofa
Rattus norvegicus [7] = assay: Ex vivo occupancy at NET in Sprague-Dawley rat brain cortex assessed as inhibition of [3H]-nisoxetine binding at 3 mg/kg, iv measured after 1 hr by scintillation counting method; format: functional
[8] = Mean residence time in Crl:CD(SD)(IGS) rat at 1 mg/kg, po administered via cassette dosing by LC/MS/MS analysis; format: ADME, organism-based; settings: in vivo
[9] = Oral bioavailability in Crl:CD(SD)(IGS) rat at 1 mg/kg administered via cassette dosing by LC/MS/MS analysis; format: ADME, organism-based; settings: in vivo
[10] = AUC in Crl:CD(SD)(IGS) rat at 1 mg/kg, po administered via cassette dosing by LC/MS/MS analysis; format: ADME, organism-based; settings: in vivo
[11] = Cmax in Crl:CD(SD)(IGS) rat at 1 mg/kg, po administered via cassette dosing by LC/MS/MS analysis; format: ADME, organism-based; parameters: dose 1 mg/kg, route oral; settings: in vivo
Rattus norvegicus [12] = assay: Increase in urethral resistance in po dosed rat assessed as increase in leak point pressure after 15 mins to 4 hrs by Evans blue dye leakage based assay; format: functional, organism-based; settings: Urethra

Sequence of Sodium-dependent serotonin transporter (P31645 whole entry): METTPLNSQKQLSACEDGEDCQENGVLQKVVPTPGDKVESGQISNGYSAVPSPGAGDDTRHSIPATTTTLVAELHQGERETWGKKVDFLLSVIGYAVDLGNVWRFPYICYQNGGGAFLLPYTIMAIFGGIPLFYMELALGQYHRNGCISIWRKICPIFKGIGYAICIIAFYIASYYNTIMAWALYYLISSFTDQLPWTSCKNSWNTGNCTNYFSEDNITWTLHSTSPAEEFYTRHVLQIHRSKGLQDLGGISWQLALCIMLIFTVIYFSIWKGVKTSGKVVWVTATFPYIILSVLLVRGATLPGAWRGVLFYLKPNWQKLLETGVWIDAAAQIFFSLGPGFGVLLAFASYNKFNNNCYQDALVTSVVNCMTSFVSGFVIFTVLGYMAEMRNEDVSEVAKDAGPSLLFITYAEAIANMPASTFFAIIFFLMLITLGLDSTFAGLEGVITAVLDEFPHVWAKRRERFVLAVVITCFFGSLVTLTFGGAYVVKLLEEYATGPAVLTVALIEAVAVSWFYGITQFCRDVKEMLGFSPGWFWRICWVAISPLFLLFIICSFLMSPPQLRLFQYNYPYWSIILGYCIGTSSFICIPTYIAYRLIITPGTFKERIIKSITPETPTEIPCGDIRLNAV

| SMILES | Ratio IC50 (Homo sapiens [1]) | IC50 [2] | IC50 [3] | IC50 [4] | Ratio IC50 (Homo sapiens [5]) | pKa [6] | efflux ratio at 2 h, 10 µM (MDR1) | Occ (Rattus norvegicus [7]) | MRT [8] | bioavailability [9] | AUC [10] | Cmax [11] | Activity (Rattus norvegicus [12]) |
| --- | --- | --- | --- | --- | --- | --- | --- | --- | --- | --- | --- | --- | --- |
| O=C1CCCCN1C[C@@H]1CNCCO[C@H]1c1ccc(Cl)c(F)c1 | 1300 | 27 nM | 0.1 nM | 130 nM | 270 | – | – | – | – | – | – | – | – |
| Cl.O=c1[nH]c(-c2ccc(=O)n(C[C@@H]3CNCCO[C@H]3c3ccc(Cl)c(F)c3)c2)no1 | – | > 1000 nM | 25 nM | > 1000 nM | – | 5.72 | 1.6 | – | – | – | – | – | – |
| Cc1nnc(-c2cccn(C[C@@H]3CNCCO[C@H]3c3ccc(Cl)c(F)c3)c2=O)[nH]1.Cl | – | 67 nM | 0.64 nM | > 1000 nM | – | 9.68 | 6.8 | – | – | – | – | – | – |
| Cl.O=c1ccccn1C[C@@H]1CNCCO[C@H]1c1ccc(Cl)c(F)c1 | > 13000 | 130 nM | 0.079 nM | > 1000 nM | 1700 | – | – | 83.4% | 2.1 h | 20% | 107 ng·h/mL | 47.9 ng/mL | – |
| Cl.O=c1[nH]c(-c2cccn(C[C@@H]3CNCCO[C@H]3c3ccc(Cl)c(F)c3)c2=O)no1 | – | 380 nM | 1 nM | > 1000 nM | – | 5.45 | 1.9 | 28.4% | 1.5 h | 12% | 38.9 ng·h/mL | 17.2 ng/mL | – |
| Cl.O=c1[nH]c(-c2ccn(C[C@@H]3CNCCO[C@H]3c3ccc(Cl)c(F)c3)c(=O)c2)no1 | – | 120 nM | 1.9 nM | > 1000 nM | – | 5.89 | > 0.8 | – | – | – | – | – | – |
| Cl.O=C(O)c1cccn(C[C@@H]2CNCCO[C@H]2c2ccc(Cl)c(F)c2)c1=O | – | > 1000 nM | 1.1 nM | > 1000 nM | – | 2.58 | 2.1 | 14% | 1.9 h | 41% | 197 ng·h/mL | 93.8 ng/mL | Dose-dependent effect |
| COC(=O)c1cccn(C[C@@H]2CNCCO[C@H]2c2ccc(Cl)c(F)c2)c1=O.Cl | – | 54 nM | 0.21 nM | > 1000 nM | – | – | 7.8 | – | – | – | – | – | – |
| CC(=O)NC[C@@H]1CNCCO[C@H]1c1ccc(Cl)c(F)c1 | > 440 | > 1000 nM | – | > 1000 nM | > 440 | – | – | – | – | – | – | – | – |
| Cl.O=c1[nH]c(-c2cccc(=O)n2C[C@@H]2CNCCO[C@H]2c2ccc(Cl)c(F)c2)no1 | – | > 1000 nM | 100 nM | > 1000 nM | – | 6.35 | 0.6 | – | – | – | – | – | – |
| O=c1cccnn1C[C@@H]1CNCCO[C@H]1c1ccc(Cl)c(F)c1 | 3600 | 79 nM | 0.065 nM | 240 nM | 1200 | – | – | – | – | – | – | – | – |
| O=C1CCCN1C[C@@H]1CNCCO[C@H]1c1ccc(Cl)c(F)c1 | 3100 | 85 nM | 0.13 nM | 400 nM | 650 | – | – | – | – | – | – | – | – |
| O=C1NCCCN1C[C@@H]1CNCCO[C@H]1c1ccc(Cl)c(F)c1 | 820 | 12 nM | 0.08 nM | 66 nM | 150 | – | – | – | – | – | – | – | – |
| Cl.O=c1c(-c2nnn[nH]2)cccn1C[C@@H]1CNCCO[C@H]1c1ccc(Cl)c(F)c1 | – | 730 nM | 1.4 nM | > 1000 nM | – | 3.88 | 1.7 | 12% | 2 h | 8% | 44 ng·h/mL | 16.2 ng/mL | – |
